Assay results reported in ChEMBL document CHEMBL1201862, “PubChem BioAssay data set” (2004).
Active and inactive are the calls of the source.

How the values were obtained:
[1] = test system: HT-1080; test: HT1080 cell viability loss – fluorescence readout (AID 620); format: functional, cell-based; details: Homo sapiens
[2] = test system: BJ; test: BJ-TERT fibroblast viability loss – cell-based, RAS-independent, luminescence, dose response (AID 1933); format: functional; details: Homo sapiens
[3] = luciferase reporter signal suppression in cells – H4 neuroglioma cells, luminescence, dose response (AID 1990); format: functional, cell-based
[4] = molecular target: T1, Apoptotic protease-activating factor 1 (Homo sapiens, UniProt O14727); format: functional
T1 sequence (O14727 whole entry): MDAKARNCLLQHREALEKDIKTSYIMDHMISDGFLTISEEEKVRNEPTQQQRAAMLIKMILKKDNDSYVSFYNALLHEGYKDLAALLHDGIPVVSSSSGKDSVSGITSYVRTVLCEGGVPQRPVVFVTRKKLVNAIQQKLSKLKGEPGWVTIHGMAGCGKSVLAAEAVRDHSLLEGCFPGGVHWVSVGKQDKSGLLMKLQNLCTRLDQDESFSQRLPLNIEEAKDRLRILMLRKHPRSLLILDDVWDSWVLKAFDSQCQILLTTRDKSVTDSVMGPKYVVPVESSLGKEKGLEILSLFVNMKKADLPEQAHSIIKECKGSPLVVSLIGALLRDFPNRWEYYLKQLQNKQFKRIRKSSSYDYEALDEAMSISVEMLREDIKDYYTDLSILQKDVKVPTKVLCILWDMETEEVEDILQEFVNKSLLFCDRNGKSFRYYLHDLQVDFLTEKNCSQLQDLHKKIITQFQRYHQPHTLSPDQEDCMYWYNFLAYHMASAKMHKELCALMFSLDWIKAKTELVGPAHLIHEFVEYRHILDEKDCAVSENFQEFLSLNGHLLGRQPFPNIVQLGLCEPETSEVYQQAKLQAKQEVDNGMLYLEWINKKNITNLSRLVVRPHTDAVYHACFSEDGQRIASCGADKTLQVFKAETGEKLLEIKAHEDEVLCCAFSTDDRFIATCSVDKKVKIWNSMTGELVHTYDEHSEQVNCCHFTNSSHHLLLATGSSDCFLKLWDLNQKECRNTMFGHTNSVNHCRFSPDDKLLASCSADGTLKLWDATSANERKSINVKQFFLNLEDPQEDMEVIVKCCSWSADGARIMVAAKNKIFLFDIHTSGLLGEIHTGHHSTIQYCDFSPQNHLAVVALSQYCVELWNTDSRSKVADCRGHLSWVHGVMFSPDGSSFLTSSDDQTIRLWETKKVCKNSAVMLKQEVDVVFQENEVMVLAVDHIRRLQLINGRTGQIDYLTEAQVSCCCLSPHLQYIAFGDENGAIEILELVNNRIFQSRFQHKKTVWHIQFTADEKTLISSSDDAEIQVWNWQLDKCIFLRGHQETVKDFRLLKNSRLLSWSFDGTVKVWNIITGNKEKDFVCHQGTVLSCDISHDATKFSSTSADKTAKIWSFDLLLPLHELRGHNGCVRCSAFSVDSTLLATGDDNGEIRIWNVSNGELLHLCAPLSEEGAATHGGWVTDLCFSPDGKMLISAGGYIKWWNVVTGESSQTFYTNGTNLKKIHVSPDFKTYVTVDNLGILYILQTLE

[5] = molecular target: Tyrosyl-DNA phosphodiesterase 2 (Homo sapiens, UniProt O95551); test: potency against TDP2 phosphodiesterase activity – biochemical, epi absorbance, IC50, dose response (AID 743297)
Sequence of Tyrosyl-DNA phosphodiesterase 2 (O95551 whole entry): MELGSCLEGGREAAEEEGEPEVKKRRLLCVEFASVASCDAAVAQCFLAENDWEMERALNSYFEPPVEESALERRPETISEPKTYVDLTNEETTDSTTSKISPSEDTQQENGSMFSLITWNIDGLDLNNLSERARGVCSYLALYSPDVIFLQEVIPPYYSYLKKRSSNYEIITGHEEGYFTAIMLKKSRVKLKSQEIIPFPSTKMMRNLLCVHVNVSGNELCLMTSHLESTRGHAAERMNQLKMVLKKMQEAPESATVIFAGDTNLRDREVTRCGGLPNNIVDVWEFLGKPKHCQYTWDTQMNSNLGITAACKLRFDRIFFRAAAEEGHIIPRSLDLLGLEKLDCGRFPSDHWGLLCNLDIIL

[6] = molecular target: Mitochondrial peptide methionine sulfoxide reductase (Bos taurus, UniProt P54149); format: functional;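 also: absorbance read-out, biochemical high-throughput dose-response screen for MsrA inhibitors, confirmatory; recombinant bovine MsrA coupled to E. coli TrxB with NADPH and selenocystamine; potency is for inhibitors of MsrA activity on DMSO substrate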
Sequence of Mitochondrial peptide methionine sulfoxide reductase (P54149 whole entry): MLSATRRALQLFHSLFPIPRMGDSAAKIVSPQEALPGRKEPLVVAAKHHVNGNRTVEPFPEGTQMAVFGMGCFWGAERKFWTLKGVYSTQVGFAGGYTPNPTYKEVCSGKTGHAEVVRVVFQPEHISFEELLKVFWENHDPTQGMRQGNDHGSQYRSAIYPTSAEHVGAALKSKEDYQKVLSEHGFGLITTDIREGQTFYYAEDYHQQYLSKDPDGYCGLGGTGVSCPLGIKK

[7] = test system: BJ; test: cells; format: functional, cell-based; details: Homo sapiens
[8] = Luminescence Cell-Based Dose Response HTS to Identify Inhibitors of 5'UTR Stem-Loop Driven Prion Protein mRNA Translation in H4 Neuroglioblastoma Cells. [Related pubchem assays: 1827 (Project Summary), 1813 (Primary HTS)]; format: functional
[9] = alpha-synuclein stem-loop luciferase translation blockers – H4 neuroglioma cells, luminescence, confirmation (AID 1988); format: functional, cell-based
[10] = IC50 of Artemis nuclease activity blockers – biochemical, fluorescence intensity, dose response (AID 720701); format: functional;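 also: Artemis endonuclease enzyme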
[11] = molecular target: Mothers against decapentaplegic homolog 3 (Homo sapiens, UniProt P84022); test: inhibitors of SMAD-driven TGF-beta signaling – dose response (AID 715); format: functional
Sequence of Mothers against decapentaplegic homolog 3 (P84022 whole entry): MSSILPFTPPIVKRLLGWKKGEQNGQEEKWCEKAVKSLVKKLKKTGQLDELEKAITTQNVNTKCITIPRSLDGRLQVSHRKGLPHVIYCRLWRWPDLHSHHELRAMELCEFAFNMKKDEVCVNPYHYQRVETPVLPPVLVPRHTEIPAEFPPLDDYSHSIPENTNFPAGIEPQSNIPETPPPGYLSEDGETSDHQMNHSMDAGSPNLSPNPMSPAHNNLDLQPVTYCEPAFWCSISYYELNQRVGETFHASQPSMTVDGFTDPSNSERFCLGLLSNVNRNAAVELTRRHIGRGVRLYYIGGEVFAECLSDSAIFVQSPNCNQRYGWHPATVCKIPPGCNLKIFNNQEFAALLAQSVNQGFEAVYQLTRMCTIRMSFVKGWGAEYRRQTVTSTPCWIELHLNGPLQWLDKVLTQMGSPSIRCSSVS

[12] = DRD fibroblast viability loss – cell-based, non-viral oncogenic, luminescence, dose response (AID 1934); format: functional; details: Homo sapiens
[13] = molecular target: Luciferin 4-monooxygenase (Photinus pyralis, UniProt P08659); test: Counter Screen for Luciferase-based Assay Positives. [Related pubchem assays: 620, 618, 411 ]
Sequence of Luciferin 4-monooxygenase (P08659 whole entry): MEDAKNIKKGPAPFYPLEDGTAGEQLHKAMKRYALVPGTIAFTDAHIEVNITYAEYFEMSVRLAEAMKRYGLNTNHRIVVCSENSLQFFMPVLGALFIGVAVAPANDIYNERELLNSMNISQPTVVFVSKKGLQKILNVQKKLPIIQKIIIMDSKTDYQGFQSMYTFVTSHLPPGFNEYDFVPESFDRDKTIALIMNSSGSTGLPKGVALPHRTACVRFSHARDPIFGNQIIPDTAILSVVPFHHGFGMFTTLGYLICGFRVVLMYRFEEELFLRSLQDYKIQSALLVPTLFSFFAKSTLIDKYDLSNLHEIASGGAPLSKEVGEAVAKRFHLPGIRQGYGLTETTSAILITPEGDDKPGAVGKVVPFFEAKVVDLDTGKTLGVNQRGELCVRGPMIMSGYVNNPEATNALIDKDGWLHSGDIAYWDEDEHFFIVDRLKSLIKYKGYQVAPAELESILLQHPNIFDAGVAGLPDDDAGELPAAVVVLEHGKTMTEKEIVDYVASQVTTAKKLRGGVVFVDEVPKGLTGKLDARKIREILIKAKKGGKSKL

[14] = molecular target: T2, Hexokinase HKDC1 (Homo sapiens, UniProt Q2TB90); test: inhibition of HKDC1 glucose phosphorylation – biochemical, W721R variant, dose response (AID 504729); format: functional
T2 sequence (Q2TB90 whole entry): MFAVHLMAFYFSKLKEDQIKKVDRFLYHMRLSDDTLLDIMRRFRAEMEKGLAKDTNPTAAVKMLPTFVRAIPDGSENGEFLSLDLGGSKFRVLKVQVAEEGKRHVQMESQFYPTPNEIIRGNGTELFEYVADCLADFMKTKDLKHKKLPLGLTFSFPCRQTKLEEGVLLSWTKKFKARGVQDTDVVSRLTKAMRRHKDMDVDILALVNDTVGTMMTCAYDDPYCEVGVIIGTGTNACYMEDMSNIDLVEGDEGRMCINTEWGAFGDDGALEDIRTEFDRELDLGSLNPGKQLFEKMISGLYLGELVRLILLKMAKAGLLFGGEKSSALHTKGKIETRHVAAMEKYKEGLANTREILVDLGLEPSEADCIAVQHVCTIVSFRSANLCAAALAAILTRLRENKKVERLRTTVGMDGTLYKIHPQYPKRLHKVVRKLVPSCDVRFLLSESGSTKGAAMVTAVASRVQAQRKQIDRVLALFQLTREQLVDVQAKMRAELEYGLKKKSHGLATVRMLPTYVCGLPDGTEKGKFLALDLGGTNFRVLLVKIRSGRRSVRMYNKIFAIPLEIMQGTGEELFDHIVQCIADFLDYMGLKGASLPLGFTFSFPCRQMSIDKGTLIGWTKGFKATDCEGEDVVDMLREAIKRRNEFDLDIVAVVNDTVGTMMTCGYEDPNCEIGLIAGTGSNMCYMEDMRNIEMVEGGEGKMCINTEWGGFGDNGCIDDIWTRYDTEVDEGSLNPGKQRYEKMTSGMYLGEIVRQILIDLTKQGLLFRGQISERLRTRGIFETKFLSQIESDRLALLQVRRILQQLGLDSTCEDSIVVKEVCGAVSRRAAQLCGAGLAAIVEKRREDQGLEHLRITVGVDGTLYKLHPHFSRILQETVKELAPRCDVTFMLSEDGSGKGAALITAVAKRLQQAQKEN

[15] = test system: BJ; test: BJ-TERT-LT-ST fibroblast viability loss – cell-based, RAS-independent, luminescence, dose response (AID 1935); format: functional; details: Homo sapiens;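 also: BJ fibroblasts immortalized with TERT plus LT and ST oncogenes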
[16] = molecular target: DNA (cytosine-5)-methyltransferase 1 (Homo sapiens, UniProt P26358); test: inhibition of DNA methylation by DNMT1 – biochemical, fluorescent molecular beacon, confirmation (AID 602386); format: functional
Sequence of DNA (cytosine-5)-methyltransferase 1 (P26358 whole entry, the tested form may be a part): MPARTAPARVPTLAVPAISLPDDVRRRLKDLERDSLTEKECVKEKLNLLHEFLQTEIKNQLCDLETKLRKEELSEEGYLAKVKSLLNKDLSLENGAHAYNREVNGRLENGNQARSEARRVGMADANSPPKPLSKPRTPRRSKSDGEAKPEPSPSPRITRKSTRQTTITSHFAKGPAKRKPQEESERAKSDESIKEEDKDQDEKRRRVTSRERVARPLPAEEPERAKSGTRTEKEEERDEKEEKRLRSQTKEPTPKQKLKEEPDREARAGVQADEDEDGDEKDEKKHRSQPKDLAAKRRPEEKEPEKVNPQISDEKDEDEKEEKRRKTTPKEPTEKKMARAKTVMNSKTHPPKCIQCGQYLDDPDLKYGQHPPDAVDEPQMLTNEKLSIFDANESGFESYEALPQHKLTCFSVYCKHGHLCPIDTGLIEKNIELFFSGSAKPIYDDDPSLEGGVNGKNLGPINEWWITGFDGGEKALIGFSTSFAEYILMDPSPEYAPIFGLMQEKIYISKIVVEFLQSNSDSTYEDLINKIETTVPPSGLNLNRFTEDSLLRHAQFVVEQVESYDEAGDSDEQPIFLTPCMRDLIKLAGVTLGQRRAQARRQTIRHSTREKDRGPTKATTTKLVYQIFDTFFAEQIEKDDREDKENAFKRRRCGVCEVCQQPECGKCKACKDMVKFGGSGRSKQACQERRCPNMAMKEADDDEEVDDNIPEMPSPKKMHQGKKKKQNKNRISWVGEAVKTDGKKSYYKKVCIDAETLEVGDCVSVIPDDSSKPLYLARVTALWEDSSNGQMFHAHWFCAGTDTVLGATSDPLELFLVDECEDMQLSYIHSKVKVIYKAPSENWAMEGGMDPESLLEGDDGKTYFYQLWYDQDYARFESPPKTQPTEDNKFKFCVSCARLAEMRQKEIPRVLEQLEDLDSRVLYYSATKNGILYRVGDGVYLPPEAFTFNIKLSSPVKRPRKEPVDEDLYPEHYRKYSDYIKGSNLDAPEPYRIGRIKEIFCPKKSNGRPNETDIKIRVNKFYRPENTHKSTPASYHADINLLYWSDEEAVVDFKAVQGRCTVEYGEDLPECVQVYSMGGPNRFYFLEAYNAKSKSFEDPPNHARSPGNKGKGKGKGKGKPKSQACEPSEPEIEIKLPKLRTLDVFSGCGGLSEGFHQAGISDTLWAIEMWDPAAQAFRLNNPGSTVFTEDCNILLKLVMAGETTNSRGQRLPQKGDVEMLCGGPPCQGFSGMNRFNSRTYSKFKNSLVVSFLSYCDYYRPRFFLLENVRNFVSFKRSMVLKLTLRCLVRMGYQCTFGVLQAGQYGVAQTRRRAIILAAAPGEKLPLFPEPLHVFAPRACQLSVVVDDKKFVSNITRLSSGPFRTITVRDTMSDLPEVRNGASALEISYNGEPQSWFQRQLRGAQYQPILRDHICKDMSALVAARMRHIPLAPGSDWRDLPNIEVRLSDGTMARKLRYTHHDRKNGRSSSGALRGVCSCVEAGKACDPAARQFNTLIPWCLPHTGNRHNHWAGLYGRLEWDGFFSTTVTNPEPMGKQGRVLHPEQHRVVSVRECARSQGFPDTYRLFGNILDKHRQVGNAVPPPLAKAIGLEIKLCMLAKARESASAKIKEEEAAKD

[17] = molecular target: T3, Estrogen receptor (Homo sapiens, UniProt P03372); test: ERα coactivator recruitment enhancers – biochemical, TR-FRET, ERα LBD, dose response (AID 737)
T3 sequence (P03372 whole entry): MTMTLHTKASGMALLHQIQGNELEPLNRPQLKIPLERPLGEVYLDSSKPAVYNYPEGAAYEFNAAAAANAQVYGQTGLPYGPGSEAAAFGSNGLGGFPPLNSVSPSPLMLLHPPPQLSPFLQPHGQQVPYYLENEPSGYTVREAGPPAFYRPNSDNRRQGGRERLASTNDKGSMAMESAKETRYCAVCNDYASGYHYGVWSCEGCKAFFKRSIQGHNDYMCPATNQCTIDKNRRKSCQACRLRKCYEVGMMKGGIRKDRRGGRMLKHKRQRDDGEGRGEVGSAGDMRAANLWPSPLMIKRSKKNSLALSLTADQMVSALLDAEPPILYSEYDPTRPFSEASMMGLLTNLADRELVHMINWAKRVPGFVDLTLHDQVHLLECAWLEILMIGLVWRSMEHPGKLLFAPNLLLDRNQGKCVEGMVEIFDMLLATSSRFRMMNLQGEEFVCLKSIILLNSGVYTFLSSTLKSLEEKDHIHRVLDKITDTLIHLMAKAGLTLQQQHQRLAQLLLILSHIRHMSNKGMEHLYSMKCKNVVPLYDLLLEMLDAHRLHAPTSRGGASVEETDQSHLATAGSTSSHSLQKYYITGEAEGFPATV

[18] = molecular target: T4, Mannose-6-phosphate isomerase (Homo sapiens, UniProt P34949); test: MPI inhibition at elevated mannose 6-phosphate – biochemical, fluorescence intensity, high mannose 6-phosphate, primary screen (AID 1220)
T4 sequence (P34949 whole entry): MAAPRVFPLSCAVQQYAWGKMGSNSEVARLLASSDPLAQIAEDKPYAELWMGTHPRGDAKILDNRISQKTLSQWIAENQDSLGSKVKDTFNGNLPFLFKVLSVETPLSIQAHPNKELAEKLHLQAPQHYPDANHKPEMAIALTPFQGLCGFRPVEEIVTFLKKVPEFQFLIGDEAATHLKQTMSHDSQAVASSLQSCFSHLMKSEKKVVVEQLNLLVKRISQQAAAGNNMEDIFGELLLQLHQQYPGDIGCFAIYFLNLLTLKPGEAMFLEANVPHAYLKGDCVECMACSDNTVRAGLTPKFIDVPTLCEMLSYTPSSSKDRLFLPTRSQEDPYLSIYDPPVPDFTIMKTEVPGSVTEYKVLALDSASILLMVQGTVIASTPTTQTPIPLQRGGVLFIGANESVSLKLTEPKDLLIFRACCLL

[19] = molecular target: Induced myeloid leukemia cell differentiation protein Mcl-1 (Homo sapiens, UniProt Q07820); format: functional
Sequence of Induced myeloid leukemia cell differentiation protein Mcl-1 (Q07820 whole entry): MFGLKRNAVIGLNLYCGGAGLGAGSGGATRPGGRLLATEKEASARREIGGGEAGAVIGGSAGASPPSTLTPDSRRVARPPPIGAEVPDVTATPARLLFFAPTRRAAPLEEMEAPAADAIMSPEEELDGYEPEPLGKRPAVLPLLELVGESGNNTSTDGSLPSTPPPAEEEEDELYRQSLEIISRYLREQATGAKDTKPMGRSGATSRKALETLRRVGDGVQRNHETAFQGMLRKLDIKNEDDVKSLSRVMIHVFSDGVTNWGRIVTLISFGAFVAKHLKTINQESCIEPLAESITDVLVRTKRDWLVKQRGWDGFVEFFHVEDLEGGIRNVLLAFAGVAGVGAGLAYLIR

[20] = mitochondrial function rescue without frataxin homolog – Friedreich's ataxia, plus single-dose screen, dose response (AID 1465); format: functional;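 also: yeast depleted of Yfh1p frataxin homolog grown on glycerol needing respiration; WST-1 tetrazolium dye reduction as measure of cellular dehydrogenase metabolic activity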
[21] = viability loss in THP-1 monocytes – THP-1 cells, cytotoxicity control for Vif-APOBEC3G degradation inhibitor project, dose response (AID 1117359); format: functional; details: THP-1
[22] = molecular target: NS3 (Hepatitis C virus, UniProt A3EZJ3); test: PubChem AID 2173; design: species or system Hepacivirus hominis
Sequence of NS3 (A3EZJ3 whole entry): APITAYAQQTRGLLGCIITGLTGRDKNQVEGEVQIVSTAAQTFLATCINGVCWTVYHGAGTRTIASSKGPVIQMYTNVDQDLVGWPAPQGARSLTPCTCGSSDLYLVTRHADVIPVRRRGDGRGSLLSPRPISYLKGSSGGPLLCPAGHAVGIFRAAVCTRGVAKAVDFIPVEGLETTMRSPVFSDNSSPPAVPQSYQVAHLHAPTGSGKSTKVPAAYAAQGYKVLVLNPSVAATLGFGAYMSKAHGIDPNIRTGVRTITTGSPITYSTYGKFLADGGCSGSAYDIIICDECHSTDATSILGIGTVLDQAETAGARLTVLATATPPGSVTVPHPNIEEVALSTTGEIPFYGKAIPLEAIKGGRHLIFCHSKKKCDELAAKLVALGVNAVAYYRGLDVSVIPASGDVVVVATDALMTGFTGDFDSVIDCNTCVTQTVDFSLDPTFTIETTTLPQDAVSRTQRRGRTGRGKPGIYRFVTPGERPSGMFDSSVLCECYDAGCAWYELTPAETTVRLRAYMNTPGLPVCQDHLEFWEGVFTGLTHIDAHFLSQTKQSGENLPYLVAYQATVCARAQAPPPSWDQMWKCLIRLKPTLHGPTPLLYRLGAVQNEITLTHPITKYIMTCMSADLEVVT

O=C1C(N2CCOCC2)=C(n2nnc3ccccc32)C(=O)c2ccccc21
inactive: IC50 [5] 10 µM
inconclusive: EC50 [15] > 150 µM
active: EC50 [1] 12.3 µM | EC50 [2] 8.79 µM | IC50 [4] 4.02 µM | IC50 [6] 9.33 µM | EC50 [7] 5.06 µM | EC50 [8] 8.93 µM | IC50 [10] 7.75 µM | IC50 [11] 22 µM | EC50 [12] 10.5 µM | EC50 [13] 1.63 µM | IC50 [14] 7.01 µM
> 120 µM (not active): EC50 [3] | EC50 [9]

O=C(CSc1nc2c(cnn2-c2ccccc2)c(=O)[nH]1)c1ccc(Cl)cc1
active: IC50 [16] 9.12 µM | EC50 [17] 9.92 µM

CCN(CC)S(=O)(=O)c1cccc(C(=O)N/N=C/c2ccc(O)c(O)c2O)c1
active: IC50 [18] 5.36 µM | IC50 [19] 7.33 µM | EC50 [20] > 100 µM | CC50 [21] > 40 µM | IC50 [22] 5.31 µM
